From US20250032527A1, “MEDICAL USE OF N4-HYDROXY CITICOLINE COMPOUNDS” (IMMUNIC AG, priority 2021, published 2025)
Values after ≈ are worked out from the molar mass of the structure shown. Counter-ions that a name gives are not always drawn. Like-named read-outs stand apart in the source and are kept apart here.

Key:
[1] = cited from earlier work
[2] = Mouse pharmacokinetics, blood levels after single oral dose; type: in vivo, female C57BL/6 mice
Procedure: The present study aimed at the determination of pharmacokinetic parameters of Example 2 and it's metabolites (NHC, NHC-MP, NHC-DP and NHC-TP) in blood after single dose oral administration of 96.5 μmol/kg to female C57BL/6 mice (body weight 20 to 21 g). Blood samples were obtained from the retrobulbar venous plexus into Li-Heparin tubes (Minivette POCT, […]). The vehicle for preparation of the dose formulations was PBS. The samples were analysed by high resolution LC-MS at Pharmacelsus GmbH, Germany.

Microsomal stability = type: in vitro ADME; details: compared to non-deuterated matched pair C26
SARS-COV-2 = assay: microbe, parasite or virus in culture; type: cell-based; details: for EC50: Severe acute respiratory syndrome coronavirus 2; for SI: SARS-COV-2, CC50/EC50
RSV A2 = assay: RSV virus titers by endpoint titration (CCID50), mono and combination; type: cell-based; details: MA-104 cells, virus control 4.0
HRV-14 = HRV-14 virus titers by endpoint titration (CCID50), mono and combination; type: cell-based; details: Hela cells, virus control 6.7
in vitro = details: human
[3] = molecular target: N-terminally truncated recombinant hDHODH enzyme (Homo sapiens, UniProt Q02127); assay: Human DHODH inhibition assay; type: biochemical; details: pH 8.0, 30° C.
N-terminally truncated recombinant hDHODH enzyme, sequence (Q02127 whole entry, looked up, the tested form may be a part): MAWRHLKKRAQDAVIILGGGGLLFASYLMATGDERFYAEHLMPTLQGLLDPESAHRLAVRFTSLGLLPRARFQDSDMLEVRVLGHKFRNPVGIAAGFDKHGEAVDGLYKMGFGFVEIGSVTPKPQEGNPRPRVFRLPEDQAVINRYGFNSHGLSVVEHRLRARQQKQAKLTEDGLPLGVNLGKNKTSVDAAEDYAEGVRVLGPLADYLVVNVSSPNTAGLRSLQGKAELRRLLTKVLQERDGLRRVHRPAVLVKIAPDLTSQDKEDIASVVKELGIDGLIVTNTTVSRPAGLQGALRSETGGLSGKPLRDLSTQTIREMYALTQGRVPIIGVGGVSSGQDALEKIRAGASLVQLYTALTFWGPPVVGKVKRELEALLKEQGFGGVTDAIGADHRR
Procedure: Briefly, the hDHODH concentration was adjusted in a way that an average slope of approximately 0.2 AU/min served as the positive control (e.g. without inhibitor). […] The reaction was started by adding dihydroorotate and measuring the absorption at 600 nm for 2 min. For the determination of the IC50 values, each data point was recorded in triplicate. For the determination of the inhibitory constant Ki, the KM values for DHO and decylubichinon were determined. Afterwards, the compounds were diluted in a dilution series depending on their IC50 values in DMSO. The dilution was: 0 ×IC50 , 1/4×IC50 , 1/2×IC50 , 1×IC50 , 2×IC50 , 4×IC50 . […] Each data point was recorded in duplicate.

[4] = pH 7.4
[5] = pH 7.4; remark: listed apart in the source
physchem [6] = details: pH 7.4, aqueous buffer, kinetic from dmso stock
physchem [7] = details: fassgf or other biorelevant, kinetic from dmso stock
physchem [8] = details: simulated gastric fluid
physchem [9] = details: pH 7.4
[10] = A-B permeability (Caco-2, pH 6.5/7.4); details: human, A-B, Caco-2, pH 6.5/7.4, test conc. 1.0E−05M
[11] = B-A permeability (Caco-2, pH 6.5/7.4); details: human, test conc. 1.0E−05M
[12] = SARS-COV-2 viral replication (YFP), read-out: EC50
[13] = metabolite in blood of mice after single oral 96.5 μmol/kg Example 2
[14] = Caco-2, pH 6.5, Percent Recovery 1st
[15] = Caco-2, pH 6.5, Percent Recovery 2nd
[16] = Caco-2, pH 6.5, Percent Recovery Mean
[17] = Caco-2, pH 6.5, Permeability 1st
[18] = Caco-2, pH 6.5, Permeability 2nd
[19] = Caco-2, pH 6.5, Permeability Mean

**Q.** Which oral bioavailability [1] does the source give for `C[N+](C)(C)CCOP(=O)(O)OP(=O)([O-])OC[C@H]1O[C@@H](n2ccc(N)nc2=O)[C@H](O)[C@@H]1O` [Citicoline, cytidine 5′-diphosphocholine] here?
**A.** more than 90%

**Q.** With `C[N+](C)(C)CCOP(=O)(O)OP(=O)([O-])OC[C@H]1O[C@@H](n2ccc(NO)nc2=O)[C@H](O)[C@@H]1O` [Example 2, 2-(((((((2R,3S,4R,5R)-3,4-Dihydroxy-5-(4-(hydroxyamino)-2-oxopyrimidin-1 (2H)-yl)tetrahydrofuran-2-yl)methoxy) (hydroxy)phosphoryl)oxy)oxidophosphoryl)oxy)-N,N,N-trimethylethan-1-aminium triethylammonium salt] as the molecule, how does the “blood concentration of test item (lower limit of quantification)” value ([2]; mice, single oral 96.5 μmol/kg Example 2, not found in all blood samples) read?
**A.** < 14.4 nM

**Q.** With `[2H]C([2H])([2H])Oc1cccc(-c2ccc(NC(=O)C3=C(C(=O)O)CCC3)c(F)c2)c1` [Example 50, 2-((3-Fluoro-3′-(methoxy-d3)-[1,1′-biphenyl]-4-yl)carbamoyl) cyclopent-1-ene-1-carboxylic acid] as the molecule, how does the microsomal stability (Microsomal stability) read?
**A.** improved

**Q.** What about the EC50 (SARS-COV-2) of the same molecule?
**A.** < 10 µM

**Q.** And the “RSV Virus Titers” value (RSV A2; Conc. 0.0079 μM)?
**A.** 3.7 CCID50/mL (Log10)

**Q.** And the “RSV Virus Titers” value (RSV A2; Conc. 0.025 μM)?
**A.** 3.7 CCID50/mL (Log10)

**Q.** What about the “RSV Virus Titers” value (RSV A2; Conc. 0.079 μM) of the same molecule?
**A.** 3.5 CCID50/mL (Log10)

**Q.** And the “RSV Virus Titers” value (RSV A2; Conc. 0.25 μM)?
**A.** 3.5 CCID50/mL (Log10)

**Q.** And the “RSV Virus Titers” value (RSV A2; Conc. 0.79 μM)?
**A.** 3.5 CCID50/mL (Log10)

**Q.** What about the “RSV Virus Titers” value (RSV A2; Conc. 2.5 μM) of the same molecule?
**A.** 2.0 CCID50/mL (Log10)

**Q.** What about the “RSV Virus Titers” value (RSV A2; Conc. 7.9 μM) of the same molecule?
**A.** 2.0 CCID50/mL (Log10)

**Q.** What about the “RSV Virus Titers” value (RSV A2; Conc. 25 μM) of the same molecule?
**A.** <0.7 CCID50/mL (Log10)

**Q.** And the “HRV-14 Virus Titers” value (HRV-14; Conc. 0.0079 μM)?
**A.** 6.7 CCID50/mL (Log10)

**Q.** And the “HRV-14 Virus Titers” value (HRV-14; Conc. 0.025 μM)?
**A.** 6.7 CCID50/mL (Log10)

**Q.** What about the “HRV-14 Virus Titers” value (HRV-14; Conc. 0.079 μM) of the same molecule?
**A.** 7.0 CCID50/mL (Log10)

**Q.** What about the “HRV-14 Virus Titers” value (HRV-14; Conc. 0.25 μM) of the same molecule?
**A.** 6.7 CCID50/mL (Log10)

**Q.** What about the “HRV-14 Virus Titers” value (HRV-14; Conc. 0.79 μM) of the same molecule?
**A.** 6.7 CCID50/mL (Log10)

**Q.** What about the “HRV-14 Virus Titers” value (HRV-14; Conc. 2.5 μM) of the same molecule?
**A.** 7.0 CCID50/mL (Log10)

**Q.** What about the “HRV-14 Virus Titers” value (HRV-14; Conc. 7.9 μM) of the same molecule?
**A.** 4.0 CCID50/mL (Log10)

**Q.** And the “HRV-14 Virus Titers” value (HRV-14; Conc. 25 μM)?
**A.** 3.5 CCID50/mL (Log10)

**Q.** And the CC50 (in vitro)?
**A.** > 100 µM

**Q.** Which results are given for `[2H]C([2H])([2H])Oc1cccc(-c2cc(F)c(NC(=O)C3=C(C(=O)O)CCC3)c(F)c2)c1` [Example 51, 2-((3,5-Difluoro-3′-(methoxy-d3)-[1,1′-biphenyl]-4-yl)carbamoyl) cyclopent-1-ene-1-carboxylic acid]?
**A.** SI (SARS-COV-2): >5; EC50 (SARS-COV-2; [12]): < 20 µM; CC50 (in vitro): > 100 µM

**Q.** For `C[N+](C)(C)CCOP(=O)([O-])OP(=O)([O-])OC[C@H]1O[C@@H](n2ccc(N)nc2=O)[C@H](O)[C@@H]1O.[Na+]` [Example C1, Citicoline sodium, reference compound], which SI (SARS-COV-2) is on record?
**A.** inactive

**Q.** What about the EC50 (SARS-COV-2; [12]) of the same molecule?
**A.** > 50 µM

**Q.** What about the CC50 (in vitro) of the same molecule?
**A.** > 100 µM

**Q.** With `COc1cccc(C2=CCC=C(NC(=O)C3=C(C(=O)O)CCC3)C(F)=C2)c1` [Example C26] as the molecule, how does the Ki ([3]; substrate DHO varied, read-out: Ki (DHO)) read?
**A.** 0.592 µM

**Q.** What about the Ki ([3]; substrate decylubichinon varied, read-out: Ki (decylubichinon)) of the same molecule?
**A.** 0.245 µM

**Q.** With `O=c1nc(NO)ccn1[C@@H]1O[C@H](CO)[C@@H](O)[C@H]1O` [NHC, β-D-N^4-hydroxycytidine] as the molecule, how does the “Solubility 1st” value [4] read?
**A.** 349.99 µM (≈ 90.7 µg/mL)

**Q.** What about the “Solubility 2nd” value [4] of the same molecule?
**A.** 362.05 µM (≈ 93.8 µg/mL)

**Q.** What about the “Solubility Mean” value [4] of the same molecule?
**A.** > 200 µM

**Q.** What about the logD [5] of the same molecule?
**A.** 1.12

**Q.** Which logD [5] does the source give for `O=c1nc(NO)ccn1[C@@H]1O[C@H](COP(=O)(O)OP(=O)(O)O)[C@@H](O)[C@H]1O` [NHC-DP, β-D-N^4-hydroxycytidine 5′-diphosphate] here?
**A.** 0.12

**Q.** What does the source list for `O=c1nc(NO)ccn1[C@@H]1O[C@H](COP(=O)(O)O)[C@@H](O)[C@H]1O` [NHC-MP]?
**A.** AUC (0-inf) [2, 13]: 1.624 µM·h; elimination half-life [2, 13]: 7.3 h; maximal blood concentration [2, 13]: 274+41.4 nM; time of maximal blood concentration post dose [2, 13]: 30 min

**Q.** Which maximal blood concentration [2, 13] does the source give for `O=c1nc(NO)ccn1[C@@H]1O[C@H](COP(=O)(O)OP(=O)(O)OP(=O)(O)O)[C@@H](O)[C@H]1O` [NHC-TP, β-D-N^4-hydroxycytidine 5′-triphosphate, reference compound] here?
**A.** 611+100 nM

**Q.** And the “time of maximal blood concentration post dose” value [2, 13]?
**A.** 240 min

**Q.** With `CC(C)C(=O)OC[C@H]1O[C@@H](n2ccc(NO)nc2=O)[C@H](O)[C@@H]1O` [molnupiravir, reference compound] as the molecule, how does the solubility (physchem [6]; Solubility 1st) read?
**A.** 247 µM (≈ 81.3 µg/mL)

**Q.** And the solubility (physchem [6]; Solubility 2nd)?
**A.** 291 µM (≈ 95.7 µg/mL)

**Q.** And the solubility (physchem [6]; Solubility Mean)?
**A.** > 200 µM

**Q.** What about the solubility (physchem [7]; Solubility 1st) of the same molecule?
**A.** 302 µM (≈ 99.3 µg/mL)

**Q.** And the solubility (physchem [7]; Solubility 2nd)?
**A.** 329 µM (≈ 108 µg/mL)

**Q.** And the solubility (physchem [7]; Solubility Mean)?
**A.** > 200 µM

**Q.** What about the solubility (physchem [8]; Solubility 1st) of the same molecule?
**A.** 258 µM (≈ 84.9 µg/mL)

**Q.** What about the solubility (physchem [8]; Solubility 2nd) of the same molecule?
**A.** 293 µM (≈ 96.4 µg/mL)

**Q.** And the solubility (physchem [8]; Solubility Mean)?
**A.** > 200 µM

**Q.** What about the logD (physchem [9]) of the same molecule?
**A.** 0.39

**Q.** What about the recovery at 10 µM [10, 14] of the same molecule?
**A.** 70%

**Q.** And the recovery at 10 µM [10, 15]?
**A.** 71%

**Q.** What about the recovery at 10 µM [10, 16] of the same molecule?
**A.** 71%

**Q.** And the Papp at 10 µM [10, 17]?
**A.** 0.19 ×10⁻⁶ cm/s

**Q.** What about the Papp at 10 µM [10, 18] of the same molecule?
**A.** 0.13 ×10⁻⁶ cm/s

**Q.** What about the Papp at 10 µM [10, 19] of the same molecule?
**A.** 0.2 ×10⁻⁶ cm/s

**Q.** What about the recovery at 10 µM [11, 14] of the same molecule?
**A.** 90%

**Q.** What about the recovery at 10 µM [11, 15] of the same molecule?
**A.** 89%

**Q.** What about the recovery at 10 µM [11, 16] of the same molecule?
**A.** 89%

**Q.** And the Papp at 10 µM [11, 17]?
**A.** 0.26 ×10⁻⁶ cm/s

**Q.** What about the Papp at 10 µM [11, 18] of the same molecule?
**A.** 0.27 ×10⁻⁶ cm/s

**Q.** And the Papp at 10 µM [11, 19]?
**A.** 0.3 ×10⁻⁶ cm/s
